# Laboratory results from ChEMBL document CHEMBL1201862, “PubChem BioAssay data set” (2004).
# Calls of active or inactive are those of the source.
# Columns and labels:
# [1] = Jurkat T cell cytotoxicity, dose response, cytotoxicity control for P. falciparum gametocyte viability project, luminescence (AID 1117277); format: functional, cell-based;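 note: potency reflects loss of cellular ATP meaning fewer viable cells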
# [2] = P. falciparum late gametocyte killing, dose response, luminescence (AID 1117278); format: functional, cell-based;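 note: gametocytes exposed to compound for 24 hours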
# [3] = target: T1, 1-phosphatidylinositol 4,5-bisphosphate phosphodiesterase beta-3 (Homo sapiens, UniProt Q01970); test: Fluorescence-based biochemical high throughput dose response assay to identify inhibitors of phospholipase C isozymes (PLC-B3).
# T1 sequence (Q01970 whole entry): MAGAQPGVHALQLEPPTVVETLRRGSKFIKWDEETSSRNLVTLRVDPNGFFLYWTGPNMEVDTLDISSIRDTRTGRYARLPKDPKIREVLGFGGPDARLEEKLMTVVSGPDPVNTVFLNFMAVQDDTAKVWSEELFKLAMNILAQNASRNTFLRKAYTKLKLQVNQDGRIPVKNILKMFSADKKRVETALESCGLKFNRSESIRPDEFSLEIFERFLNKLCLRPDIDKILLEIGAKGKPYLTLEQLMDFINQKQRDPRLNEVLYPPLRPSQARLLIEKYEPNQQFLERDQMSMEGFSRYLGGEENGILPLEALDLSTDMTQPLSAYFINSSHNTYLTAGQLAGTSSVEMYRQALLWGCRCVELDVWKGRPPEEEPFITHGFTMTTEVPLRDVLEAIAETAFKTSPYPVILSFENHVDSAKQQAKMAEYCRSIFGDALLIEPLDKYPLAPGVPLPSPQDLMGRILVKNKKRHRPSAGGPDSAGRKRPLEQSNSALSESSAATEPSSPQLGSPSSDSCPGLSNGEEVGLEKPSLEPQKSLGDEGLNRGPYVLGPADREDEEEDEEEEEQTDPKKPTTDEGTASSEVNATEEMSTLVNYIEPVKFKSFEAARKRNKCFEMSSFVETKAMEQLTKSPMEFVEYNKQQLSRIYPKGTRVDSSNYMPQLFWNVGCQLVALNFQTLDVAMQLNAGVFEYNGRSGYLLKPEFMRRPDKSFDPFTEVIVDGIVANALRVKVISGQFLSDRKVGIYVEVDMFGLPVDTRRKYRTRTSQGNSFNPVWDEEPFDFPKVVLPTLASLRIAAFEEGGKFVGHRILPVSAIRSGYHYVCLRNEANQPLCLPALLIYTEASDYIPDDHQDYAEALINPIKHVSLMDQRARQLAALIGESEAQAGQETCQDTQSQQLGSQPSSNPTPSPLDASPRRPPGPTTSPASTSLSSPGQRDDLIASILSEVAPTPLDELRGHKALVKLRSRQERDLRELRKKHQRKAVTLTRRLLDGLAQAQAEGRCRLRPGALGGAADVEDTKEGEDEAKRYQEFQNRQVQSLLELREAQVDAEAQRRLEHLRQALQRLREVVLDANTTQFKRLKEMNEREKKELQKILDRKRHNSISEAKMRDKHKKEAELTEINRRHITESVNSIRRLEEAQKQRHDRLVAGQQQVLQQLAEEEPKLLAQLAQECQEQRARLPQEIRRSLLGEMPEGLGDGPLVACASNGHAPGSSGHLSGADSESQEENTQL
# [4] = target: T2, 1-phosphatidylinositol 4,5-bisphosphate phosphodiesterase gamma-1 (Homo sapiens, UniProt P19174); test: Counterscreen for inhibitors of phospholipase C isozymes (PLC-B3): Fluorescence-based biochemical high throughput dose response assay to identify inhibitors of phospholipase C isozymes (PLC-gamma1).
# T2 sequence (P19174 whole entry): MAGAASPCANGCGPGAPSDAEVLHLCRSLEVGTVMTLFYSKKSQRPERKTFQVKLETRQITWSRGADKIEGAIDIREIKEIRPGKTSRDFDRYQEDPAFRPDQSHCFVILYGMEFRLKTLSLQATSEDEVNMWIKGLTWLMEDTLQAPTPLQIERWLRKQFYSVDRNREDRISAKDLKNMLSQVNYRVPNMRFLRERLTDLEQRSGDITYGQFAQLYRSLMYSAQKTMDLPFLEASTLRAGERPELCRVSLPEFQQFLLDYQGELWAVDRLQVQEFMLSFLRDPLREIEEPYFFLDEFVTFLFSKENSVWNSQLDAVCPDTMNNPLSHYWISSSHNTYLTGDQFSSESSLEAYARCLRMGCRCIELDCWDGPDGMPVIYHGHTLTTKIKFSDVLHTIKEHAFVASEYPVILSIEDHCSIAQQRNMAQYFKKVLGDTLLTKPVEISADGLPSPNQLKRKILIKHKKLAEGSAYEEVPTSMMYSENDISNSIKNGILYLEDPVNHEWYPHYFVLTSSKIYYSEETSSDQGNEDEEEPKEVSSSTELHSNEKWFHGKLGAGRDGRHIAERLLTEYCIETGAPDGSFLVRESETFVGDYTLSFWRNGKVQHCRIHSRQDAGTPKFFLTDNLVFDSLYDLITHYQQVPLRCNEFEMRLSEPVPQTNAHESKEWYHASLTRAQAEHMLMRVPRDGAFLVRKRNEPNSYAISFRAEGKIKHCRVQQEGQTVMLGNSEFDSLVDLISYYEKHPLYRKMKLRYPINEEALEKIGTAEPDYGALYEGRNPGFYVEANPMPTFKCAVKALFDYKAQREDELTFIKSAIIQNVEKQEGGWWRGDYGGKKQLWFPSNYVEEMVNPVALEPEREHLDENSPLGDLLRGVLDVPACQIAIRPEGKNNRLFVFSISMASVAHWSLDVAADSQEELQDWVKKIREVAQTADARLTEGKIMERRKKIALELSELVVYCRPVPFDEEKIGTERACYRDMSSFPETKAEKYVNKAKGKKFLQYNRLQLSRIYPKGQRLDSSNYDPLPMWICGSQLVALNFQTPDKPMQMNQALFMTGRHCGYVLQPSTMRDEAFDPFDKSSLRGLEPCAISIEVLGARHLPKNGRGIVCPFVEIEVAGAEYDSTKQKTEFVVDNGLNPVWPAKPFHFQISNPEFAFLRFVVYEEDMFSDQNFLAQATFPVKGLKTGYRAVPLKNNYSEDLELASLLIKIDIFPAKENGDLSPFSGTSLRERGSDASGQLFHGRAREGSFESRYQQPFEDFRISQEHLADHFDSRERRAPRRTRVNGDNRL
# [5] = human group III sPLA2 inhibitors, dose response, biochemical, QFRET, IC50 (AID 743457);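 note: green fluorescence rise as the enzyme cleaves BODIPY PC-A2 in liposomes; potency for inhibition of the enzyme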
# [6] = miR-122 activators in hepatoma reporter cells, dose response, cell-based, Huh7 psiCHECK-miR122, Renilla luciferase, cherry-picked (AID 651956); format: functional;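 note: huh7 hepatoma cells stably carrying a psiCHECK-2 miR-122 sensor plasmid; renilla luciferase signal reporting endogenous miR-122 activity after 48 h compound exposure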
# BJ [7] = test: cells; format: functional, cell-based; details: Homo sapiens
# BJ [8] = test: cytotoxicity toward BJ-TERT fibroblasts, dose response, cell-based, RAS-independent, luminescence (AID 1933); format: functional; details: Homo sapiens
# [9] = HEK293T cytotoxicity, dose response, cytotoxicity control for miR-122 modulator project, cell-based, activator set, cherry-pick (AID 720690); format: functional;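 note: HEK293T human cells scored for general mammalian cytotoxicity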
# BJ [10] = test: cytotoxicity toward Ras-transformed BJeLR fibroblasts, dose response, cell-based, alamar blue fluorescence, cherrypicked samples (AID 2631); format: functional; details: Homo sapiens;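 note: confirmatory dose-response assay in RAS-dependent BJ fibroblasts engineered with TERT, LT and ST, with cytotoxicity read by fluorescence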
# BJ [11] = test: cytotoxicity toward BJ-TERT-LT-ST fibroblasts, dose response, cell-based, RAS-independent, luminescence (AID 1935); format: functional; details: Homo sapiens;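 note: BJ fibroblasts immortalized with TERT plus LT and ST oncogenes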
# [12] = cytotoxicity toward DRD oncogenic fibroblasts, dose response, cell-based, non-viral oncogenic, luminescence (AID 1934); format: functional; details: Homo sapiens
# Fatty acid synthase [13] = target: T3, Fatty acid synthase (Homo sapiens, UniProt P49327); test: FAS thioesterase domain inhibitors, dose response, biochemical, endpoint fluorescence intensity, uHTS hits (AID 624327); format: functional;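 note: fluorescence from hydrolysis of an O-methyl fluorescein acyl ester substrate by the enzyme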
# T3 sequence (P49327 whole entry, the tested form may be a part): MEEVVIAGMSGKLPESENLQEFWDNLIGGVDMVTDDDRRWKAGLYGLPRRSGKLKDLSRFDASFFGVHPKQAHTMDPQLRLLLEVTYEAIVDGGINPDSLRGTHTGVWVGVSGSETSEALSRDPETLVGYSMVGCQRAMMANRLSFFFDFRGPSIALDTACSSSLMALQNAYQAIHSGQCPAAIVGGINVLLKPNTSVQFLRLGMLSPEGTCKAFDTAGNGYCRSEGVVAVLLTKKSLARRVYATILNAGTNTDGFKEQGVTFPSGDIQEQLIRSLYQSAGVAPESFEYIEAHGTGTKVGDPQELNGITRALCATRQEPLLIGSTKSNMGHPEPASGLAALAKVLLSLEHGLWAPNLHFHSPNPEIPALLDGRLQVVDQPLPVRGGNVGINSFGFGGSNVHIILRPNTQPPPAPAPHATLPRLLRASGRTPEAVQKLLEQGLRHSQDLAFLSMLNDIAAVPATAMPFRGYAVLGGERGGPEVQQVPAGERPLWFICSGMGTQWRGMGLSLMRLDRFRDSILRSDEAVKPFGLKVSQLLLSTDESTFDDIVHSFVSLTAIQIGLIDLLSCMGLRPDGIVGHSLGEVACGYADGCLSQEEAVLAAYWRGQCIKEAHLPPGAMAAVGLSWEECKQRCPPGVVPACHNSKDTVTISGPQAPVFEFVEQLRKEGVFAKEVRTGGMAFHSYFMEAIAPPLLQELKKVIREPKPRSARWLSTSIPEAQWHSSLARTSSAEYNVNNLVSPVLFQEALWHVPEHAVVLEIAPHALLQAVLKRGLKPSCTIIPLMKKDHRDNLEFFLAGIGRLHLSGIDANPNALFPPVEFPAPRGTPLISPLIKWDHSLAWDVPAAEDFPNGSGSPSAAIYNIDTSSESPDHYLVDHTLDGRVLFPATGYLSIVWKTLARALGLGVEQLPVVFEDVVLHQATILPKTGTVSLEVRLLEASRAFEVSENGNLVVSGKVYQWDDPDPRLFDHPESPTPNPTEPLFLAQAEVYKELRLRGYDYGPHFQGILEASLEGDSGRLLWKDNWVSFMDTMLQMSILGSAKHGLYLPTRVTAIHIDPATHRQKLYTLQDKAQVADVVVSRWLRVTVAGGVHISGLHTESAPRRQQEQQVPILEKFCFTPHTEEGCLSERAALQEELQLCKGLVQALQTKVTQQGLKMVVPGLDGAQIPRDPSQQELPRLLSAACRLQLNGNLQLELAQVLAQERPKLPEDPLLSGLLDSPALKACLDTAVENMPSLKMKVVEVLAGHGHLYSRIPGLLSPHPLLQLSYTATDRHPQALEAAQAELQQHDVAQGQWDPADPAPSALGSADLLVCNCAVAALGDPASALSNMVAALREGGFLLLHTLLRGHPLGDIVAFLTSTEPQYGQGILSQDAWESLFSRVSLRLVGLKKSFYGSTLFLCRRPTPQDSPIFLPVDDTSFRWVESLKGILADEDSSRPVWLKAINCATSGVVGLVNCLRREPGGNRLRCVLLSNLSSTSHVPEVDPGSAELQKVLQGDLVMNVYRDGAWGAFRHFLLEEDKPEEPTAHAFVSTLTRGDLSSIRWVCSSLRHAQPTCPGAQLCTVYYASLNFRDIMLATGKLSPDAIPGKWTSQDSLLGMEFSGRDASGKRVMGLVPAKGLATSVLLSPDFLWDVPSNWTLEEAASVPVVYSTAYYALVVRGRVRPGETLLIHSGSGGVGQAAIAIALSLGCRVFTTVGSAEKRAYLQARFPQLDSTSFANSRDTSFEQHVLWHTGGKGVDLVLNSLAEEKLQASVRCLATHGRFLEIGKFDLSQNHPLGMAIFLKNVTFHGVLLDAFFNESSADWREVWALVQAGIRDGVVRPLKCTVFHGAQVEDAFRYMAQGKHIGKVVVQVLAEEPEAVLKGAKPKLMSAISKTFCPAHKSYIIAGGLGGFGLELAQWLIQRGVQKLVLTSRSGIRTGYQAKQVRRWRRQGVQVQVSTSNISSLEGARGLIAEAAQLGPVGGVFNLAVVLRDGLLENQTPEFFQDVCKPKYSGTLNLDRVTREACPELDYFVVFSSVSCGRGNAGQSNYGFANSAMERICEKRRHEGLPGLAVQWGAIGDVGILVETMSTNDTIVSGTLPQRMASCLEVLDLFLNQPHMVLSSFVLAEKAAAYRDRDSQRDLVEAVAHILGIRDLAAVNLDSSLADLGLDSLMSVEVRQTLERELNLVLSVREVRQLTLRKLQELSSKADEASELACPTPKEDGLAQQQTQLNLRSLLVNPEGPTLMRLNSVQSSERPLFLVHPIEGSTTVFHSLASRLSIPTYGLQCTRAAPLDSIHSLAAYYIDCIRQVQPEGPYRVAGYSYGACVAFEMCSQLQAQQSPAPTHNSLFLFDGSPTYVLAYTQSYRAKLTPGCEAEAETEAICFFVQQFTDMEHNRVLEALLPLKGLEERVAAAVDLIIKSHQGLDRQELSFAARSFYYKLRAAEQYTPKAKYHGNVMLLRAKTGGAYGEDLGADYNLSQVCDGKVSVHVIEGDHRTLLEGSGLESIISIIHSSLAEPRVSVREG
# [14] = HEK293T cytotoxicity, dose response, cytotoxicity control for miR-122 modulator project, cell-based, inhibitor set, cherry-pick, set 2 (AID 720697); format: functional
# Fatty acid synthase [15] = target: T3, Fatty acid synthase; test: FAS thioesterase domain inhibitors, dose response, biochemical, kinetic fluorescence intensity (AID 624326); format: functional;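 note: rate of fluorescence rise from hydrolysis of a fluorogenic O-methyl fluorescein ester substrate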
# [16] = Vero cell cytotoxicity, dose response, cytotoxicity control for Vif-APOBEC3G degradation inhibitor project, Vero cells (AID 1117358); format: functional; details: Human immunodeficiency virus 1, Vero
# Cytochrome P450 1A2 = target: T4, Cytochrome P450 1A2 (Homo sapiens, UniProt P05177);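 note: PubChem cytochrome P450 panel assay, CYP1A2 panel member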
# T4 sequence (P05177 whole entry): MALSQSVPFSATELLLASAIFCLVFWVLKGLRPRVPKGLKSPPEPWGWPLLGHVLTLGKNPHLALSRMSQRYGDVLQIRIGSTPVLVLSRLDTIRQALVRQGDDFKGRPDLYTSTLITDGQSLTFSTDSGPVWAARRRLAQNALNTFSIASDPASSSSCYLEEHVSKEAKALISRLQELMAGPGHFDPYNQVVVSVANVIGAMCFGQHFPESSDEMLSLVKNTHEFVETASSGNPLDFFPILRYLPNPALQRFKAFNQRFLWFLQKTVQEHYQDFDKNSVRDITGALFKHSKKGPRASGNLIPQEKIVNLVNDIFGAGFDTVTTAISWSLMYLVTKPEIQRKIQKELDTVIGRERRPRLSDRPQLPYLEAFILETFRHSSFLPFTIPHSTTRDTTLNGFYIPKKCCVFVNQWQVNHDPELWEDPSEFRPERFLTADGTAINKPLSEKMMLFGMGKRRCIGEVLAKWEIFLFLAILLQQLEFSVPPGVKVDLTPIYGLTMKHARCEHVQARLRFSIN
# [17] = target: T5, Rac GTPase-activating protein 1 (Homo sapiens, UniProt Q9H0H5); test: MgcRacGAP GTPase-activating activity inhibitors, confirmation, biochemical, ADP Hunter fluorescence, primary and confirmatory (AID 624330); format: functional
# T5 sequence (Q9H0H5 whole entry): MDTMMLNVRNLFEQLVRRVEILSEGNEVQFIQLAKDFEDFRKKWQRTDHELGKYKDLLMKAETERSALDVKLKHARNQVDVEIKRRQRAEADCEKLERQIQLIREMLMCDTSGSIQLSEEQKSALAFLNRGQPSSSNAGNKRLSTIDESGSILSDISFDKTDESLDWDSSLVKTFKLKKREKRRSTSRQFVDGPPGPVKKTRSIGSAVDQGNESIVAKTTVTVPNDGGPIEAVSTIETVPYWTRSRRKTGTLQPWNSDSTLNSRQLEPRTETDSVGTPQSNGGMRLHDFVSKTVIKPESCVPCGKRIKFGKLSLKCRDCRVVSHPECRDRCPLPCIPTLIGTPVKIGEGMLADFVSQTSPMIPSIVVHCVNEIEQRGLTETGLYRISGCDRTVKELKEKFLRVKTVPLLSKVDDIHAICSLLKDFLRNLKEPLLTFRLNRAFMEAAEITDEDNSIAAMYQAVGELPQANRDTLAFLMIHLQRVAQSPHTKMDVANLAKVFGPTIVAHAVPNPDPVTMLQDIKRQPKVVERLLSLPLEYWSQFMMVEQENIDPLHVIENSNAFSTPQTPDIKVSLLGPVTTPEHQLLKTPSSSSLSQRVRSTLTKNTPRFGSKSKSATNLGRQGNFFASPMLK
# [18] = P. falciparum Dd2 growth inhibitors, dose response, SYBR Green, cherry-picked samples (AID 1159567); format: functional, cell-based
# [19] = P. falciparum ATP4 D1247Y mutant growth inhibitors, dose response, NITD609-resistant line, SYBR Green, dry powder (AID 1159571); format: functional, cell-based;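 note: parasites synchronized at ring stage by sorbitol before testing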
# [20] = HepG2 cell cytotoxicity, dose response, cytotoxicity control, plate reader, dry powder samples (AID 1159569); format: functional, cell-based;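 note: inhibitor potency with signal falling toward the positive control level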
# [21] = P. falciparum 3D7-ScDHODH growth inhibitors, dose response, SYBR Green, dry powder samples (AID 1159570); format: functional, cell-based;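 note: parasite growth measured after 72 hours of compound exposure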
# [22] = P. falciparum Dd2 growth inhibitors, dose response, SYBR Green, dry powder samples (AID 1159566); format: functional, cell-based;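 note: potency for growth inhibition with lower SYBR green DNA signal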
compound,measurement,setting,value
NS(=O)(=O)c1ccc(N2CCCC2=O)c([N+](=O)[O-])c1,IC50,[1],> 83.2 µM (inactive)
same,IC50,[2],> 109 µM (inactive)
COc1ccc(CCNCc2c(OC)ccc3ccccc23)cc1,IC50,[3],> 123 µM (inactive)
same,IC50,[4],> 123 µM (inactive)
COc1ccc(N=Nc2nc(-c3ccccc3)c(-c3ccccc3)[nH]2)cc1,IC50,[5],> 122 µM (inactive)
O=C(NC(Nc1ncc(S(=O)(=O)c2ccc([N+](=O)[O-])cc2)s1)(C(F)(F)F)C(F)(F)F)c1ccc(Cl)cc1,AC50,[6],2.35 µM (active)
same,EC50,BJ [7],52.1 µM (active)
same,EC50,BJ [8],11 µM (inconclusive)
same,AC50,[9],4.29 µM (active)
same,EC50,BJ [10],83.6 µM (active)
same,EC50,BJ [11],20.1 µM (active)
same,EC50,[12],12.4 µM (active)
same,IC50,Fatty acid synthase [13],9.12 µM (active)
same,AC50,[14],9.01 µM (active)
same,IC50,Fatty acid synthase [15],7.87 µM (active)
Cc1ccc(NS(=O)(=O)c2ccc(OCC(=O)Nc3cccc([N+](=O)[O-])c3)c(C)c2)cc1,CC50,[16],> 40 µM (active)
same,AC50,Cytochrome P450 1A2,22.4 µM (inconclusive)
COc1ccccc1-n1c(CNCC2CCCO2)nc2ccccc2c1=O (configuration not stated),IC50,[3],> 122 µM (inactive)
same,IC50,[4],> 122 µM (inactive)
COc1cc(C(=O)N2CCC(n3cnc4cc(F)ccc43)CC2)cc(OC)c1OC,IC50,[1],> 83.3 µM (inactive)
same,IC50,[2],> 109 µM (inactive)
COc1ccccc1CN(C)C(C)C(=O)Nc1cccc(C(C)=O)c1 (configuration not stated),IC50,[1],> 83.3 µM (inactive)
same,IC50,[2],> 109 µM (inactive)
O=C1CS(=O)(=O)c2ccccc2N1,IC50,[3],> 123 µM (inactive)
same,IC50,[4],35.7 µM (inactive)
Cc1ccc(Nc2n[nH]c(=S)s2)cc1,IC50,[5],> 122 µM (inactive)
same,IC50,[17],72.2 µM (active)
CN1C(=O)c2cc(NC(=O)c3ccc(C(F)(F)F)cc3)ccc2OC[C@@H]2O[C@H](CC(=O)NCc3ccc4c(c3)OCO4)CC[C@@H]21,AC50,[6],6.22 µM (active)
same,AC50,[9],12.6 µM (active)
same,AC50,[14],28 µM (active)
CNC[C@H]1Oc2cc(C#CC3CCCCC3)ccc2S(=O)(=O)N([C@H](C)CO)C[C@@H]1C,AC50,[9],28.8 µM (active)
same,AC50,[14],0.433 µM (active)
COc1ccc(NC(=O)Nc2ccc3c(c2)[C@@H]2C[C@H](CC(=O)N[C@@H](C)c4ccccc4)O[C@H](CO)[C@@H]2O3)cc1,AC50,[18],2.22 µM (active)
same,AC50,[19],2.16 µM (active)
same,AC50,[20],> 100 µM (inactive)
same,AC50,[21],35.3 µM (active)
same,AC50,[22],1.62 µM (active)
COc1ccc2c3c(n(C)c2c1)[C@@H](CO)N(Cc1ccc(Cl)cc1)CC31CCN(CC2CC2)CC1,AC50,[18],1.86 µM (active)
same,AC50,[19],1.7 µM (active)
same,AC50,[20],22 µM (active)
same,AC50,[21],2.64 µM (active)
same,AC50,[22],1.67 µM (active)
